Source: PubChem BioAssay AID1919008 (Molecular Pharmacology Branch, DTP, NCI, 2023)

Test system: DMS-114 complex spheroids with HUVEC/MSC, growth % test/control
Experiment: Anticancer human tumor DMS-114 cell line growth inhibition [AhR];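 also: spheroids exposed to agents for 7 days before readout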;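 as to viability, T/C: 100% = DMSO vehicle control wells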
Conditions: for IC50: curve of first compound; for viability, T/C: stronger effect = lower value
Excerpt: Multicellular complex tumor spheroid response to aryl hydrocarbon receptor antagonists in combination with a variety of drugs and investigational agents in selected tumor cell lines
The current study was undertaken to assess response to aryl hydrocarbon receptor antagonists in combination with standard-of-care drugs and investigational agents in solid tumor complex spheroid models. Complex spheroids include a stromal component modeled by human endothelial cells (HUVEC) and fibroblasts modeled by human mesenchymal stem cells (MSCs). The concentration ranges selected for each drug and investigational agent were based upon clinically achievable concentrations if the clinical Cmax of the agent was known.
Compounds. The drugs and investigational agents: BAY 2416964 (NSC825713), GNF351 (NSC835774), CH-223191 (NSC835775), CPI-455 (NSC825282), aza-TdCyd (NSC777586), decitabine (NSC127716), belinostat (NSC758774), entinostat (NSC756642), pevonedistat (NSC761192), tazemetostat (NSC777109), talazoparib (NSC765396), olaparib (NSC753686), selinexor (NSC780203), nedisertib (M3814, NSC802822), bortezomib (NSC756655), venetoclax (NSC766270), doxorubicin (NSC123127), elimusertib (BAY189344, NSC800525), ceralasertib (AZD6738, NSC777638), TAK-243 (NSC785004), alisertib (NSC759677), etoposide (NSC141540), topotecan (NSC609699), eribulin (NSC707389), gemcitabine (NSC613327), carboplatin (NSC241240), cisplatin (NSC119875), and SN-38 (NSC673596) were obtained from the National Cancer Institute (NCI) Developmental Therapeutics Program Chemical Repository (32). The FDA-approved anticancer drug set is available from the Developmental Therapeutics Program at https://dtp.cancer.gov/organization/dscb/obtaining/available plates.htm. […] The stock solutions were prepared in dimethyl sulfoxide (DMSO, Sigma-Aldrich, St. Louis, MO, cat. D2650), except for the platinum compounds which were prepared in saline (Quality Biological, Gaithersburg, MD, cat. 114-055-101), at 800-fold the tested concentration and stored at -70 degrees C prior to their use. All drugs and investigational agents were tested over a range starting from a high concentration at or near the clinical Cmax and decreasing in half-log increments. If the clinical Cmax for an agent had not been determined, the highest concentration tested was 10 microM (Table 1).
Cell Culture. All cells were maintained in an incubator at 37 degrees C and 5% CO2 with 95% humidity. The PDC lines were cultured according to standard operating procedures established by the NCI PDMR (https://pdmr.cancer.gov). Briefly, all PDCs were thawed and cultured in Matrigel-coated flasks prepared with a working solution of 1X Ham's F-12 nutrient mix, without supplementation (Invitrogen, Waltham, MA, cat. 11765054), 100 U/mL penicillin-streptomycin (Invitrogen, cat. 15140122), and 2.5% Matrigel (Corning Inc., Corning, NY, cat. 354248) for the first three passages. All PDCs were cultured in complete DMEM/F-12 media containing advanced DMEM/F-12 (Invitrogen, cat. 12634028), 4.9% defined fetal bovine serum, heat inactivated (HyClone Laboratories Inc., Logan, UT, cat. SH30070.03HI), 389 ng/mL hydrocortisone (Sigma-Aldrich, cat. H4001), 9.7 ng/mL human EGF recombinant protein (Invitrogen, cat. PHG0313), 23.4 microg/mL adenine (Sigma-Aldrich, cat. A2786), 97.3 U/mL penicillin-streptomycin (Invitrogen, cat. 15140122), 1.9 mM L-glutamine (Invitrogen, cat. 25030081), and 9.7 microM Y-27632 dihydrochloride (Tocris Bioscience, Bristol, United Kingdom, cat. 1254). The PDCs were cultured in complete DMEM/F12 media without 10 microM Y-27632 dihydrochloride for at least two passages prior to the screen. The established cell lines NCI-H1341 and […] were cultured in DMEM/F-12, HEPES (Invitrogen, cat. 11330032), 5% defined fetal bovine serum (HyClone Laboratories Inc., cat. SH30070.03), ITS premix universal culture supplement [insulin (5 microg/mL), transferrin (5 microg/mL), and selenious acid (5 ng/mL)] […]

Question: COc1cc(C2c3cc4c(cc3C(OC3OC5COC(C)OC5C(O)C3O)C3COC(=O)C23)OCO4)cc(OC)c1O (stereo not given) + Cc1ccccc1N=Nc1ccc(NC(=O)c2ccnn2C)c(C)c1 was tested. Which IC50 (second compound 0.1 µM) did it give?
Answer: 1740 nM

Question: And the IC50 (second compound 0.316 µM)?
Answer: 1760 nM

Question: And the IC50 (second compound 1 µM)?
Answer: 1470 nM

Question: What about the IC50 (second compound 3.16 µM) of the same molecule?
Answer: 1650 nM

Question: And the IC50 (second compound 10 µM)?
Answer: 1750 nM

Question: What about the viability, T/C (second compound 0.1 µM, first compound 0.0316 µM) of the same molecule?
Answer: 99.4%

Question: What about the viability, T/C (second compound 0.1 µM, first compound 0.1 µM) of the same molecule?
Answer: 99.1%

Question: And the viability, T/C (second compound 0.1 µM, first compound 0.316 µM)?
Answer: 93.4%

Question: And the viability, T/C (second compound 0.1 µM, first compound 1 µM)?
Answer: 59.7%

Question: And the viability, T/C (second compound 0.1 µM, first compound 3.16 µM)?
Answer: 40.4%

Question: And the viability, T/C (second compound 0.1 µM, first compound 10 µM)?
Answer: 26.5%

Question: And the viability, T/C (second compound 0.316 µM, first compound 0.0316 µM)?
Answer: 105%

Question: And the viability, T/C (second compound 0.316 µM, first compound 0.1 µM)?
Answer: 100%

Question: What about the viability, T/C (second compound 0.316 µM, first compound 0.316 µM) of the same molecule?
Answer: 84.4%

Question: And the viability, T/C (second compound 0.316 µM, first compound 1 µM)?
Answer: 56.9%

Question: What about the viability, T/C (second compound 0.316 µM, first compound 3.16 µM) of the same molecule?
Answer: 43%

Question: And the viability, T/C (second compound 0.316 µM, first compound 10 µM)?
Answer: 25.5%

Question: What about the viability, T/C (second compound 1 µM, first compound 0.0316 µM) of the same molecule?
Answer: 97.7%

Question: What about the viability, T/C (second compound 1 µM, first compound 0.1 µM) of the same molecule?
Answer: 92.4%

Question: What about the viability, T/C (second compound 1 µM, first compound 0.316 µM) of the same molecule?
Answer: 84.4%

Question: And the viability, T/C (second compound 1 µM, first compound 1 µM)?
Answer: 52.2%

Question: And the viability, T/C (second compound 1 µM, first compound 3.16 µM)?
Answer: 43.6%

Question: And the viability, T/C (second compound 1 µM, first compound 10 µM)?
Answer: 29.6%

Question: And the viability, T/C (second compound 3.16 µM, first compound 0.0316 µM)?
Answer: 100%

Question: And the viability, T/C (second compound 3.16 µM, first compound 0.1 µM)?
Answer: 96.4%

Question: And the viability, T/C (second compound 3.16 µM, first compound 0.316 µM)?
Answer: 81.7%

Question: And the viability, T/C (second compound 3.16 µM, first compound 1 µM)?
Answer: 59.4%

Question: What about the viability, T/C (second compound 3.16 µM, first compound 3.16 µM) of the same molecule?
Answer: 37.9%

Question: What about the viability, T/C (second compound 3.16 µM, first compound 10 µM) of the same molecule?
Answer: 26.4%

Question: What about the viability, T/C (second compound 10 µM, first compound 0.0316 µM) of the same molecule?
Answer: 90.7%

Question: And the viability, T/C (second compound 10 µM, first compound 0.1 µM)?
Answer: 92.5%

Question: What about the viability, T/C (second compound 10 µM, first compound 0.316 µM) of the same molecule?
Answer: 82.7%

Question: What about the viability, T/C (second compound 10 µM, first compound 1 µM) of the same molecule?
Answer: 57.6%

Question: What about the viability, T/C (second compound 10 µM, first compound 3.16 µM) of the same molecule?
Answer: 42.2%

Question: And the viability, T/C (second compound 10 µM, first compound 10 µM)?
Answer: 27.7%
